Experimental data as given in patent US6737383B1, “Herbicidal oxadiazolidines” (priority 1999, dated 2004).

Tests used:
[1] = test system: corn; experiment: Test B pre/postemergence corn; assay type: in vivo, Zea mays
Summary of the method: (§1)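 Herbicidal effect was estimated by eye on a ten-point control scale after plants spent twelve to sixteen days in a greenhouse following soil or foliar treatment. Foliar sprays targeted plants at one to four leaves; all doses were formulated in a non-phytotoxic solvent with surfactant.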

[2] = test system: crabgrass; experiment: Test B pre/postemergence crabgrass; assay type: in vivo, Digitaria sanguinalis
Summary of the method: as §1

[3] = test system: bamyardgrass; experiment: Test B flood test barnyardgrass; assay type: in vivo, Echinochloa crus-galli
Summary of the method: (§2)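 Plants were grown to the 2-leaf stage before treatment with test chemical, then held in a greenhouse for twelve to sixteen days. Injury was visually rated against untreated controls on a 0–10 scale, where 0 is no effect and 10 is complete control.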

[4] = test system: soybean; experiment: Test B pre/postemergence soybean; assay type: in vivo, Glycine max
Summary of the method: as §1

[5] = test system: sugar beet; experiment: Test B pre/postemergence sugar beet; assay type: in vivo, Beta vulgaris
Summary of the method: as §1

[6] = test system: rice; experiment: Test B flood test rice; assay type: in vivo, Oryza sativa
Summary of the method: as §2

[7] = test system: wild oat; experiment: Test B pre/postemergence wild oat; assay type: in vivo, Avena fatua
Summary of the method: as §1

[8] = test system: purple nutsedge; experiment: Test B pre/postemergence purple nutsedge; assay type: in vivo, Cyperus rotundus
Summary of the method: as §1

[9] = test system: bedstraw; experiment: Test B pre/postemergence bedstraw; assay type: in vivo, Galium aparine
Summary of the method: as §1

[10] = test system: surinam grass; experiment: Test B pre/postemergence surinam grass; assay type: in vivo, Brachiaria decumbens
Summary of the method: as §1

[11] = test system: rape; experiment: Test B pre/postemergence rape; assay type: in vivo, Brassica napus
Summary of the method: as §1

[12] = test system: cocklebur; experiment: Test B pre/postemergence cocklebur; assay type: in vivo, Xanthium strumarium
Summary of the method: as §1

[13] = test system: smallflower flatsedge; experiment: Test B flood test smallflower flatsedge; assay type: in vivo, Cyperus difformis
Summary of the method: as §2

[14] = test system: wheat; experiment: Test B pre/postemergence wheat; assay type: in vivo, Triticum aestivum
Summary of the method: as §1

[15] = test system: duck salad; experiment: Test B flood test duck salad; assay type: in vivo, Heteranthera limosa
Summary of the method: as §2

[16] = test system: blackgrass; experiment: Test B pre/postemergence blackgrass; assay type: in vivo, Alopecurus myosuroides
Summary of the method: as §1

[17] = test system: velvetleaf; experiment: Test B pre/postemergence velvetleaf; assay type: in vivo, Abutilon theophrasti
Summary of the method: as §1

[18] = Preemergence, Rate 62 g/ha, scale of 0 to 10 where 0 is no effect and 10 is complete control
[19] = Preemergence, Rate 125 g/ha, 0 is no effect, 10 is complete control
[20] = Preemergence, Rate 250 g/ha, scale 0 to 10, 0 is no effect, 10 is complete control
[21] = Preemergence, Rate 500 g/ha, scale of 0 to 10 where 0 is no effect and 10 is complete control
[22] = Rate 62 g/ha, Postemergence, scale of 0 to 10 where 0 is no effect and 10 is complete control
[23] = Rate 125 g/ha, Postemergence, scale 0 to 10
[24] = Rate 500 g/ha, Postemergence, scale 0 to 10
[25] = Rate 62 g/ha, headed Pre-emergence (flood test species), scale 0 to 10 (0 no effect, 10 complete control)
[26] = Rate 125 g/ha, Pre-emergence, flood test species, scale 0 to 10 where 0 is no effect and 10 is complete control
[27] = Rate 250 g/ha, Pre-emergence, flood-test species, scale 0 to 10, 0 is no effect, 10 is complete control
[28] = Rate 500 g/ha, headed Pre-emergence (flood test species), scale 0 to 10 (0 no effect, 10 complete control)

C=CCn1c(=O)on(C(=O)N(c2ccc(F)cc2)C2CCC2)c1=O [Compound 194]
Corn plant response rating [1, 18]: 0 | Corn plant response rating (0 to 10 scale) [1, 19]: 0 | Corn plant response rating [1, 20]: 0 | Plant response rating, Corn [1, 21]: 0 | Corn plant response rating [1, 22]: 0 | Corn plant response rating [1, 23]: 0 | Plant response rating (0 to 10; 0 is no effect, 10 is complete control), Corn ([1]; Rate 250 g/ha, Postemergence): 0 | Corn plant response rating [1, 24]: 0 | Crabgrass plant response rating [2, 18]: 4 | Crabgrass plant response rating (0 to 10 scale) [2, 19]: 9 | Crabgrass plant response rating [2, 20]: 9 | Crabgrass plant response rating [2, 22]: 0 | Crabgrass plant response rating [2, 23]: 0 | Plant response rating (0 to 10; 0 is no effect, 10 is complete control), Crabgrass ([2]; Rate 250 g/ha, Postemergence): 0 | Crabgrass plant response rating [2, 24]: 2 | Barnyardgrass plant response rating [3, 25]: 0 | Barnyardgrass plant response rating [3, 26]: 0 | Barnyardgrass plant response rating [3, 27]: 0 | Plant response rating, Barnyardgrass [3, 28]: 0 | Soybean plant response rating [4, 18]: 0 | Soybean plant response rating (0 to 10 scale) [4, 19]: 0 | Soybean plant response rating [4, 20]: 0 | Plant response rating, Soybean [4, 21]: 0 | Soybean plant response rating [4, 22]: 0 | Soybean plant response rating [4, 23]: 0 | Plant response rating (0 to 10; 0 is no effect, 10 is complete control), Soybean ([4]; Rate 250 g/ha, Postemergence): 0 | Soybean plant response rating [4, 24]: 1 | Sugarbeets plant response rating [5, 18]: 0 | Sugarbeets plant response rating (0 to 10 scale) [5, 19]: 0 | Sugarbeets plant response rating [5, 20]: 2 | Plant response rating, Sugarbeets [5, 21]: 3 | Sugarbeets plant response rating [5, 22]: 0 | Sugarbeets plant response rating [5, 23]: 0 | Plant response rating (0 to 10; 0 is no effect, 10 is complete control), Sugarbeets ([5]; Rate 250 g/ha, Postemergence): 0 | Sugarbeets plant response rating [5, 24]: 0 | Rice plant response rating [6, 25]: 0 | Rice plant response rating [6, 26]: 0 | Rice plant response rating [6, 27]: 0 | Plant response rating, Rice [6, 28]: 0 | Wild oats plant response rating [7, 18]: 0 | Wild oats plant response rating [7, 20]: 3 | Plant response rating, Wild oats [7, 21]: 8 | Wild oats plant response rating [7, 22]: 0 | Wild oats plant response rating [7, 23]: 0 | Plant response rating (0 to 10; 0 is no effect, 10 is complete control), Wild oats ([7]; Rate 250 g/ha, Postemergence): 0 | Nutsedge plant response rating [8, 18]: 0 | Nutsedge plant response rating [8, 20]: 0 | Plant response rating, Nutsedge [8, 21]: 0 | Nutsedge plant response rating [8, 22]: 0 | Nutsedge plant response rating [8, 23]: 0 | Plant response rating (0 to 10; 0 is no effect, 10 is complete control), Nutsedge ([8]; Rate 250 g/ha, Postemergence): 0 | Nutsedge plant response rating [8, 24]: 0 | Bedstraw plant response rating [9, 18]: 0 | Bedstraw plant response rating (0 to 10 scale) [9, 19]: 0 | Bedstraw plant response rating [9, 20]: 0 | Plant response rating, Bedstraw [9, 21]: 10 | Bedstraw plant response rating [9, 22]: 0 | Bedstraw plant response rating [9, 23]: 0 | Plant response rating (0 to 10; 0 is no effect, 10 is complete control), Bedstraw ([9]; Rate 250 g/ha, Postemergence): 0 | Bedstraw plant response rating [9, 24]: 0 | B. signalgrass plant response rating [10, 18]: 0 | B. signalgrass plant response rating (0 to 10 scale) [10, 19]: 0 | B. signalgrass plant response rating [10, 20]: 0 | Plant response rating, B. signalgrass [10, 21]: 3 | B. signalgrass plant response rating [10, 22]: 0 | B. signalgrass plant response rating ([10]; Rate 125 g/ha, Postemergence, scale 0 (no effect) to 10 (complete control)): 0 | Plant response rating, B. signalgrass ([10]; Rate 250 g/ha, Postemergence, scale 0 to 10, 0 is no effect, 10 is complete control): 0 | B. signalgrass plant response rating ([10]; Rate 500 g/ha, Postemergence, scale 0 to 10, 0 no effect, 10 complete control): 3 | Rape plant response rating [11, 18]: 0 | Rape plant response rating (0 to 10 scale) [11, 19]: 0 | Rape plant response rating [11, 20]: 2 | Plant response rating, Rape [11, 21]: 7 | Rape plant response rating [11, 22]: 0 | Rape plant response rating [11, 23]: 0 | Plant response rating (0 to 10; 0 is no effect, 10 is complete control), Rape ([11]; Rate 250 g/ha, Postemergence): 0 | Rape plant response rating [11, 24]: 2 | Cocklebur plant response rating [12, 18]: 0 | Cocklebur plant response rating (0 to 10 scale) [12, 19]: 0 | Cocklebur plant response rating [12, 20]: 0 | Plant response rating, Cocklebur [12, 21]: 0 | Cocklebur plant response rating [12, 22]: 0 | Cocklebur plant response rating [12, 23]: 1 | Plant response rating (0 to 10; 0 is no effect, 10 is complete control), Cocklebur ([12]; Rate 250 g/ha, Postemergence): 2 | Cocklebur plant response rating [12, 24]: 2 | S. Flatsedge plant response rating [13, 25]: 0 | S. Flatsedge plant response rating [13, 26]: 0 | S. Flatsedge plant response rating [13, 27]: 0 | S. Flatsedge plant response rating ([13]; Rate 500 g/ha, Pre-emergence, flood test species, scale 0 to 10 (0 no effect, 10 complete control)): 0 | Wheat plant response rating [14, 18]: 0 | Wheat plant response rating [14, 20]: 0 | Plant response rating, Wheat [14, 21]: 2 | Wheat plant response rating [14, 22]: 0 | Wheat plant response rating [14, 23]: 0 | Plant response rating (0 to 10; 0 is no effect, 10 is complete control), Wheat ([14]; Rate 250 g/ha, Postemergence): 0 | Ducksalad plant response rating [15, 25]: 0 | Ducksalad plant response rating [15, 26]: 0 | Ducksalad plant response rating [15, 27]: 0 | Plant response rating, Ducksalad [15, 28]: 0 | Blackgrass plant response rating [16, 18]: 0 | Blackgrass plant response rating (0 to 10 scale) [16, 19]: 2 | Blackgrass plant response rating [16, 20]: 3 | Plant response rating, Blackgrass [16, 21]: 8 | Blackgrass plant response rating [16, 22]: 0 | Blackgrass plant response rating [16, 23]: 0 | Plant response rating (0 to 10; 0 is no effect, 10 is complete control), Blackgrass ([16]; Rate 250 g/ha, Postemergence): 2 | Blackgrass plant response rating [16, 24]: 3 | Velvetleaf plant response rating [17, 18]: 0 | Velvetleaf plant response rating [17, 20]: 0 | Plant response rating, Velvetleaf [17, 21]: 3 | Velvetleaf plant response rating [17, 22]: 0 | Velvetleaf plant response rating [17, 23]: 0 | Plant response rating (0 to 10; 0 is no effect, 10 is complete control), Velvetleaf ([17]; Rate 250 g/ha, Postemergence): 0
